Patent publication US7173060B2, “Oxime derivatives and their use as pharmaceutically active agents” (Hoffmann-La Roche Inc., priority 2003, dated 2007)

System: histone deacetylase (HDAC)
Assay: cellular acetylation assay (histone acetylation ELISA in PC3 cells)
Assay type: cell-based
Settings: PC3 human prostate carcinoma cells, compound 1 μM, 24 h incubation, ELISA with antibodies against acetylated histone H3 or H4
Description: Therein acetylation of histones is monitored in PC3 cells. High acetylation correlates with inhibition of histone deacetylase by compounds. Cell viability is monitored in parallel to estimate the cytotoxicity of compounds.
PC3 cells, a human prostate carcinoma cell line, are seeded as 1800 cells per well of a 384-well microtiterplate in RPMI 1640 (including 5% FCS, 2 mM glutamine and pen/strep). After 48 h at 37° C. pre-diluted compounds are added to a final concentration of 1 uM. Compounds are pre-diluted in dimethyl sulfoxide (DMSO) resulting in a final concentration of DMSO of 0.5% per well.
After 24 h incubation cell viability is determined by adding cell proliferation reagent WST-1 (Roche Molecular Biochemicals). Another 60 min later the optical density (OD) is measured (450 nm versus 690 nm).
After measurement the cell layer is prepared for the ELISA reaction. Medium is aspirated and cells are fixed in ethanol at −20° C. for 60 min. After washing with PBS/Tween the blocking solution (PBS/5% FCS/Tween) is added and the cell layer is washed again. Antibodies against acetylated histone H3 or H4 (rabbit polyklonal IgG, Upstate Biotechnologie) are added at a dilution of 1:200 for 60 min at 37° C. As a second antibody goat anti rabbit IgG (H+L) humanIgG adsorbed-HRP conjugate (Dako) is used (1:2000 diluted). Cells are washed 3 times and the peroxidase substrate ABTS is allowed to react for 30–60 min at 37° C. The OD is measured at 405 nm.
The percentage of acetylation is calculated after substraction of blank O.D.s: […]

| SMILES | cell acetylation (PC3, 1 μM) [% of control] |
| --- | --- |
| Nc1ccccc1NC(=O)c1ccc(CON=Cc2ccc3c(c2)OCCO3)s1 [Example 3, 5-(2,3-Dihydro-benzo[1,4]dioxin-6-ylmethyleneaminooxymethyl)-thiophene-2-carboxylic acid (2-amino-phenyl)-amide] | 116 % of control |
| Nc1ccccc1NC(=O)c1ccc(CON=Cc2ccccc2)s1 [4–6, 5-Benzylideneaminooxymethyl-thiophene-2-carboxylic acid (2-amino-phenyl)-amide] | 180 % of control |
| COc1ccc(C=NOCc2ccc(C(=O)Nc3ccccc3N)s2)cc1OC [4–12, 5-(3,4-Dimethoxy-benzylideneaminooxymethyl)-thiophene-2-carboxylic acid (2-amino-phenyl)-amide] | 137 % of control |
| COc1ccc(C(C)=NOCc2ccc(C(=O)Nc3ccccc3N)s2)cc1OC [4–9, 5-[1-(3,4-Dimethoxy-phenyl)-ethylideneaminooxymethyl]-thiophene-2-carboxylic acid (2-amino-phenyl)-amide] | 158 % of control |
| CC(=O)Nc1ccc(C(=O)Nc2ccccc2N)cc1 [4-acetylamino-N-(2-amino-phenyl)-benzamide, reference compound] | 152 % of control |
| Nc1ccccc1NC(=O)c1ccc(CON=C2Cc3ccccc3C2)s1 [4–7, 5-(Indan-2-ylideneaminooxymethyl)-thiophene-2-carboxylic acid (2-amino-phenyl)-amide] | 182 % of control |
| Nc1ccccc1NC(=O)c1ccc(CON=Cc2cccnc2)s1 [4–21, 5-(Pyridin-3-ylmethyleneaminooxymethyl)-thiophene-2-carboxylic acid (2-amino-phenyl)-amide] | 135 % of control |
| Nc1ccccc1NC(=O)c1ccc(CON=Cc2ccc(OC(F)(F)F)cc2)s1 [4–17, 5-(4-Trifluoromethoxy-benzylideneaminooxymethyl)-thiophene-2-carboxylic acid (2-amino-phenyl)-amide] | 127 % of control |
